What was measured:
[1] = test system: cnidarian sting blistering inflammation; assay: Live jelly sting test, blistering inflammation; type: in vivo
[2] = test system: hemolytic toxins; settings: 10 mM d-lactulose; cited from earlier work
[3] = test system: fire ant venom (Solenopsis invicta) induced hemolysis of human red blood cells (RBCs); type: cell-based
[4] = test system: box jellyfish venom (Alatina alata) induced hemolysis of human RBCs; assay: Inhibition of box jellyfish venom induced hemolysis of human RBCs; type: cell-based; settings: for concentration at which active for box jellyfish venom inhibition: 5 units/mL/% RBC box jellyfish venom, 1 hour, 37° C., active at this concentration or greater
[5] = test system: live Alatina alata tentacles on human RBC agar; assay: RBC agar slide hemolysis by live Alatina alata tentacles; type: cell-based; settings: 10 μM in agar slide, 2% fresh human RBC, 37° C., one hour
Method: 2-20 mm sections of fresh live Alatina alata tentacles were placed on top of freshly prepared RBC agar slide (3% NuSieve GTG low melting agarose, 150 mM NaCl with 2% fresh human RBC). Slides were incubated at 37° C. for one hour. Zones of hemolysis are observed in control slide (FIG. 5, left) but not in slides prepared with 10 μM Copper Gluconate (3% NuSieve GTG low melting agarose, 150 mM NaCl, 10 μM Copper Gluconate with 2% fresh human RBC) (FIG. 5, right). A zone of hemolysis indicates lysis of the red blood cells.

[6] = test system: fire ant venom-induced hemolysis of RBCs; assay: Live time microscopic imaging of fire ant venom-induced hemolysis of RBCs; type: cell-based, human; settings: 10 ng/μL fire ant venom, 1 μM copper gluconate, single dose

For `O=C(Nc1ccc(Cl)cc1)Nc1ccc(Cl)c(Cl)c1` [TCC, triclocarban], the “resolution of blistering inflammation” value ([1]; 1% TCC in vanacreme, topical, untreated test lasted up to 72 hr) was “fully resolving the blistering inflammation” and the “time to resolve blistering inflammation” value ([1]; after application of a live jelly in a sting test) was no more than 90 min.

In the case of `OC[C@H]1O[C@@H](O[C@@H]2[C@@H](CO)O[C@](O)(CO)[C@H]2O)[C@H](O)[C@@H](O)[C@H]1O` [d-lactulose], the hemolysis [2] is listed as “dramatic absence of hemolysis”.

With copper gluconate the “concentration at which active for fire ant venom inhibition” value [3] was “approximately 3 μM”, the “efficacy relative to zinc gluconate in the inhibition of ant venom” value [3] was “approximately 10,000 times” and the “potency relative to zinc gluconate alone in inhibiting box jellyfish venom” value [4] was “approximately 10 times”. The “concentration at which active for box jellyfish venom inhibition” value [4] was “approximately 30 μM”, the “zones of hemolysis observed” value [5] was “not” and the slowing of hemolysis [6] was 6 fold.

For zinc gluconate, the “concentration at which active for fire ant venom inhibition” value [3] was “approximately 25 mM”, the “effect on hemolysis at early time points” value [3] was “potently stimulated hemolysis” and the “concentration at which active for box jellyfish venom inhibition” value [4] was “approximately 300 μM”.

Source: patent US10172883B2, “Methods and compositions for treating and/or inhibiting toxins using copper-containing compounds” (ALATALAB SOLUTIONS, LLC, priority 2014, dated 2019)
